Measurements published in the supplement of paper PMC11061612.

Columns and labels:
Experiment in all cases: combination Emax (second highest fraction inhibited in the dose matrix, 72 h); higher = more inhibition; extreme values may be limits of the assay
[1] = system: BT-549 (Breast Carcinoma)
Summary of the method: (§1)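 Bliss excess equals the observed combination effect minus the expected value EA + EB − EA·EB, where EA and EB are the effects of each agent alone. Combination Emax is the second-highest inhibition within the matrix. Inhibition was scaled from CellTiter-Glo 2.0 luminescence, with 0 set by vehicle wells and 1 by blank wells, after 72 hours of two-drug dosing of cells plated in 1536-well plates.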

TGW (Neuroblastoma) = system: TGW (Neuroblastoma)
Summary of the method: as §1

[2] = system: KARPAS-299 (T-Cell Non-Hodgkin's Lymphoma)
Summary of the method: as §1

[3] = system: Ca9-22 (Head and Neck Carcinoma)
Summary of the method: as §1

D-263MG (Glioblastoma) = system: D-263MG (Glioblastoma)
Summary of the method: as §1

[4] = system: LU-65 (Non-Small Cell Lung Carcinoma)
Summary of the method: as §1

[5] = system: PANC-04-03 (Pancreatic Carcinoma)
Summary of the method: as §1

YH-13 (Glioblastoma) = system: YH-13 (Glioblastoma)
Summary of the method: as §1

[6] = system: Hs-766T (Pancreatic Carcinoma)
Summary of the method: as §1

[7] = system: MLMA (Other Blood Carcinomas)
Summary of the method: as §1

[8] = system: AMO-1 (Plasma Cell Myeloma)
Summary of the method: as §1

| Compound | combination Emax [1] | combination Emax (TGW (Neuroblastoma)) | combination Emax [2] | combination Emax [3] | combination Emax (D-263MG (Glioblastoma)) | combination Emax [4] | combination Emax [5] | combination Emax (YH-13 (Glioblastoma)) | combination Emax [6] | combination Emax [7] | combination Emax [8] |
| --- | --- | --- | --- | --- | --- | --- | --- | --- | --- | --- | --- |
| C=CCn1c(=O)c2cnc(Nc3ccc(N4CCN(C)CC4)cc3)nc2n1-c1cccc(C(C)(C)O)n1 [AZD1775] + CCc1c2c(nc3ccc(O)cc13)-c1cc3c(c(=O)n1C2)COC(=O)[C@]3(O)CC [SN-38] (first compound max 1 µM, partner max 0.3 µM) | 0.857 | 0.728 | 0.971 | 0.965 | 0.641 | 0.944 | 0.617 | 0.741 | 0.537 | 0.786 | 0.974 |
| C=CCn1c(=O)c2cnc(Nc3ccc(N4CCN(C)CC4)cc3)nc2n1-c1cccc(C(C)(C)O)n1 [AZD1775] + Nc1ccn([C@@H]2O[C@H](CO)[C@@H](O)C2(F)F)c(=O)n1 [Gemcitabine] (first compound max 1 µM, partner max 0.3 µM) | 0.827 | 0.809 | 0.976 | 0.834 | 0.622 | 0.848 | 0.526 | 0.662 | 0.42 | 0.815 | 0.959 |
| CN(CCO)CC[C@H](CSc1ccccc1)Nc1ccc(S(=O)(=O)NC(=O)c2ccc(N3CCC([C@@H](O)c4ccccc4-c4ccc(Cl)cc4)CC3)cc2)cc1S(=O)(=O)C(F)(F)F [AZD4320] + CS(=O)(=O)CCNCc1ccc(-c2ccc3ncnc(Nc4ccc(OCc5cccc(F)c5)c(Cl)c4)c3c2)o1 [Lapatinib] (first compound max 1 µM, 7x7, partner max 10 µM) | 0.633 | 1 | 0.204 | 0.974 | 0.154 | 0.368 | 0.313 | 0.603 | 0.435 | 0.497 | 0.926 |
| Cc1c2c(nn1C)CSCc1cc(n(C)n1)CSc1cc(c3ccccc3c1)OCCCc1c(C(=O)O)n(C)c3c-2c(Cl)ccc13 [AZD5991] + CC(=O)O[C@H]1C(=O)[C@@]2(C)[C@H]([C@H](OC(=O)c3ccccc3)[C@]3(O)C[C@H](OC(=O)[C@H](O)[C@@H](NC(=O)c4ccccc4)c4ccccc4)C(C)=C1C3(C)C)[C@]1(OC(C)=O)CO[C@@H]1C[C@@H]2O [Paclitaxel] (first compound max 1 µM, 7x7, partner max 3 µM) | 0.864 | 0.955 | 1 | 0.963 | 1 | 0.752 | 0.52 | 0.994 | 0.304 | 0.872 | 1 |
| Cc1c2c(nn1C)CSCc1cc(n(C)n1)CSc1cc(c3ccccc3c1)OCCCc1c(C(=O)O)n(C)c3c-2c(Cl)ccc13 [AZD5991] + CS(=O)(=O)CCNCc1ccc(-c2ccc3ncnc(Nc4ccc(OCc5cccc(F)c5)c(Cl)c4)c3c2)o1 [Lapatinib] (first compound max 1 µM, 7x7, partner max 10 µM) | 0.412 | 0.312 | 0.952 | 0.933 | 0.458 | 0.332 | 0.343 | 0.186 | 0.188 | 0.232 | 1 |
| Cc1c2c(nn1C)CSCc1cc(n(C)n1)CSc1cc(c3ccccc3c1)OCCCc1c(C(=O)O)n(C)c3c-2c(Cl)ccc13 [AZD5991] + Nc1ccn([C@@H]2O[C@H](CO)[C@@H](O)C2(F)F)c(=O)n1 [Gemcitabine] (first compound max 1 µM, 7x7, partner max 0.3 µM) | 0.395 | 0.621 | 0.979 | 0.68 | 0.894 | 0.627 | 0.548 | 0.574 | 0.332 | 0.821 | 1 |
| C[C@@H]1COCCN1c1cc(C2([S@](C)(=N)=O)CC2)nc(-c2ccnc3[nH]ccc23)n1 [AZD6738] + C1CC(C1)(C(=O)[O-])C(=O)[O-].N.N.[Pt+2] [Carboplatin] (first compound max 10 µM, 7x7, partner max 10 µM) | 0.51 | 0.574 | 0.926 | 0.895 | 0.386 | 0.703 | 0.455 | 0.576 | 0.442 | 0.553 | 0.88 |
| C[C@@H]1COCCN1c1cc(C2([S@](C)(=N)=O)CC2)nc(-c2ccnc3[nH]ccc23)n1 [AZD6738] + Nc1ccn([C@@H]2O[C@H](CO)[C@@H](O)C2(F)F)c(=O)n1 [Gemcitabine] (first compound max 10 µM, 7x7, partner max 0.3 µM) | 0.797 | 0.897 | 0.997 | 0.923 | 0.738 | 0.848 | 0.627 | 0.865 | 0.505 | 0.794 | 0.967 |
| C[C@@H](Nc1cc(F)cc(F)c1)c1cc(C(=O)N(C)C)cc2c(=O)cc(N3CCOCC3)oc12 [AZD8186] + C1CN(CCC1(C(=O)N[C@@H](CCO)C2=CC=C(C=C2)Cl)N)C3=NC=NC4=C3C=CN4 [AZD5363] (first compound max 10 µM, 7x7, partner max 10 µM) | 0.343 | 0.258 | 0.263 | 0.296 | 0.284 | 0.615 | 0.275 | 0.644 | 0.336 | 0.623 | 0.506 |
| C[C@@H](Nc1cc(F)cc(F)c1)c1cc(C(=O)N(C)C)cc2c(=O)cc(N3CCOCC3)oc12 [AZD8186] + CC(=O)c1c(C)c2cnc(Nc3ccc(N4CCNCC4)cn3)nc2n(C2CCCC2)c1=O [Palbociclib] (first compound max 10 µM, 7x7, partner max 10 µM) | 0.392 | 0.32 | 0.345 | 0.368 | 0.355 | 0.312 | 0.344 | 0.692 | 0.441 | 0.847 | 0.673 |
| C[C@@H](Oc1cc(-c2cnn(C3CCNCC3)c2)cnc1N)c1c(Cl)ccc(F)c1Cl [Crizotinib] + CC1=C(C(=CC=C1)Cl)NC(=O)C2=CN=C(S2)NC3=CC(=NC(=N3)C)N4CCN(CC4)CCO [Dasatinib] (first compound max 10 µM, 7x7, partner max 2 µM) | 0.679 | 0.677 | 0.888 | 0.952 | 0.843 | 0.852 | 0.529 | 0.978 | 0.533 | 0.529 | 0.954 |
| C[C@@H](Oc1cc(-c2cnn(C3CCNCC3)c2)cnc1N)c1c(Cl)ccc(F)c1Cl [Crizotinib] + Cn1cnc2c(F)c(Nc3ccc(Br)cc3Cl)c(C(=O)NOCCO)cc21 [Selumetinib] (first compound max 10 µM, 7x7, partner max 10 µM) | 0.38 | 0.69 | 0.895 | 0.542 | 0.308 | 0.974 | 0.631 | 0.446 | 0.516 | 0.491 | 0.999 |
| CS(=O)(=O)CCNCc1ccc(-c2ccc3ncnc(Nc4ccc(OCc5cccc(F)c5)c(Cl)c4)c3c2)o1 [Lapatinib] + Cn1cnc2c(F)c(Nc3ccc(Br)cc3Cl)c(C(=O)NOCCO)cc21 [Selumetinib] (first compound max 10 µM, 7x7, partner max 10 µM) | 0.32 | 0.207 | 0.446 | 0.845 | 0.259 | 0.701 | 0.77 | 0.209 | 0.582 | 0.316 | 0.894 |
| O=C(c1cc(Cc2n[nH]c(=O)c3ccccc23)ccc1F)N1CCN(C(=O)C2CC2)CC1 [Olaparib] + CC1(C)CCC(CN2CCN(c3ccc(C(=O)NS(=O)(=O)c4ccc(NCC5CCOCC5)c([N+](=O)[O-])c4)c(Oc4cnc5[nH]ccc5c4)c3)CC2)=C(c2ccc(Cl)cc2)C1 [Venetoclax] (first compound max 10 µM, 7x7, partner max 1 µM) | 0.18 | 0.429 | 0.306 | 0.229 | 0.0634 | 0.164 | 0.176 | 0.195 | 0.135 | 0.265 | 0.333 |
| O=C(c1cc(Cc2n[nH]c(=O)c3ccccc23)ccc1F)N1CCN(C(=O)C2CC2)CC1 [Olaparib] + CN(CC[C@H](CSC1=CC=CC=C1)NC2=C(C=C(C=C2)S(=O)(=O)NC(=O)C3=CC=C(C=C3)N4CCC(CC4)[C@H](C5=CC=CC=C5C6=CC=C(C=C6)Cl)O)S(=O)(=O)C(F)(F)F)CCO [AZD4320] (first compound max 10 µM, 7x7, partner max 1 µM) | 0.217 | 0.925 | 0.432 | 0.349 | 0.0474 | 0.194 | 0.121 | 0.401 | 0.219 | 0.519 | 0.424 |
| O=C(c1cc(Cc2n[nH]c(=O)c3ccccc23)ccc1F)N1CCN(C(=O)C2CC2)CC1 [Olaparib] + COc1nnc2ccc(N3CCC(c4ccc(OCCN5CCN(C)C(=O)[C@H]5C)cc4)CC3)nn12 [AZD5153] (first compound max 10 µM, 7x7, partner max 1 µM) | 0.462 | 0.476 | 0.774 | 0.625 | 0.343 | 0.49 | 0.52 | 0.556 | 0.396 | 0.83 | 0.882 |
| O=C(c1cc(Cc2n[nH]c(=O)c3ccccc23)ccc1F)N1CCN(C(=O)C2CC2)CC1 [Olaparib] + Cc1c2c(nn1C)CSCc1cc(n(C)n1)CSc1cc(c3ccccc3c1)OCCCc1c(C(=O)O)n(C)c3c-2c(Cl)ccc13 [AZD5991] (first compound max 10 µM, 7x7, partner max 1 µM) | 0.217 | 0.192 | 0.931 | 0.212 | 0.562 | 0.2 | 0.0799 | 0.187 | 0.0824 | 0.384 | 1 |
| Cc1nc(-c2cn3c(n2)-c2ccc(-c4cnn(C(C)(C)C(N)=O)c4)cc2OCC3)n(C(C)C)n1 [Taselisib] + O=C(Nc1ccc2[nH]nc(-c3ccncc3)c2c1)[C@@H]1CCN(CC(=O)N2CCN(c3ccc(-c4ncccn4)cc3)CC2)C1 [SCH772984] (first compound max 10 µM, 7x7, partner max 5 µM) | 0.501 | 0.516 | 0.413 | 0.938 | 0.892 | 0.991 | 0.905 | 0.932 | 0.676 | 0.561 | 0.761 |
